Test [1] concerns the target T1, thrombopoietin (TPO) receptor (Homo sapiens, UniProt P40238).
T1 construct: expressed in transfected cells; host or cells: human leukemic cell line UT7/EPO, stably transformed (UT7/EPO-mpl)
T1 sequence (P40238 26-635): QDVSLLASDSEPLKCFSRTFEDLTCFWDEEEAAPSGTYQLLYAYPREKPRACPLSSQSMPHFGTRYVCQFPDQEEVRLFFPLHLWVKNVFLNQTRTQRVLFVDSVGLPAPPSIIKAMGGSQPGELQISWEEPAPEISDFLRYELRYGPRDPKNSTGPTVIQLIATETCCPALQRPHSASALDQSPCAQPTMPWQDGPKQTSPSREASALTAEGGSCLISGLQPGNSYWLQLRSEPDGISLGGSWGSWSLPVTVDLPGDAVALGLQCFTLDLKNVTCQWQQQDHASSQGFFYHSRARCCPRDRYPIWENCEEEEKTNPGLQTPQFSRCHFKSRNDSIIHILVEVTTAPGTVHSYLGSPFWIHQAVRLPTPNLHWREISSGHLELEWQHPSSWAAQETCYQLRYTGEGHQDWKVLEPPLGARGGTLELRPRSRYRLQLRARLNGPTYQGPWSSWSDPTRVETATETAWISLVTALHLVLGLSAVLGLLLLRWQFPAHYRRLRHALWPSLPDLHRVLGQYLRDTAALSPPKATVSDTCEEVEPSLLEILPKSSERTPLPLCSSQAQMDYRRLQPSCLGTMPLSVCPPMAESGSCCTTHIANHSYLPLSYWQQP
Briefly: Stimulation of proliferation of TPO-dependent cell line UT7/EPO-mpl (WST-8). The format is cell-based. Conditions: for EC50: concentration that yields a growth rate corresponding to 50% of the growth of UT-7/EPO-mpl observed in the presence of 10 ng/ml TPO. How it is done: The reactivity of the compound of Synthetic Example 3 of the present invention with thrombopoietin (TPO) receptor was assayed using a human leukemic cell line, UT7/EPO-mpl.
(§1) UT7/EPO-mpl is a stable transformed cell line obtained by introducing into human leukemic cell line UT7/EPO a vector that induces expression of human TPO receptor (c-mp1) under control of a cytomegaloviral promoter by the method of Takatoku et al. (J. Biol. Chem., 272:7259-7263 (1997)). […] These two cell lines were subcultured in Iscove's modified Dulbecco's medium (IMDM; GIBCO) containing 10% fetal bovine serum (FBS; TRACE SCIENTIFIC, Thermo Electron or BioWest) using a CO2 incubator (5% CO2, 37° C.)
(§2) The subcultured cells described above were washed twice with phosphate buffered saline (PBS) and suspended in IMDM containing 10% FBS at a cell density of 6×10^4 cells/ml. The cell suspension was transferred to a 96-well tissue culture plate (CORNING) in 100 μl aliquots. Then either TPO (PeproTech EC) or the compound of Synthetic Example 3 dissolved in dimethyl sulfoxide (DMSO) was diluted 83-fold with IMDM containing 10% FBS and added to the aforementioned cell suspension in 20 μl aliquots. The suspension was incubated in a CO2 incubator (5% Co2, 37° C.) for 4 days. Cell proliferation was assayed using WST-8 reagent (Kishida Chemical Co., Ltd.) according to instructions by the manufacturer. A 10 μl aliquot of 5 mM WST-8 reagent solution was added to each well of the tissue culture plate, and the plate was incubated at 37° C. for 4 h. The formazan pigment generated was detected by measuring the absorbance at 450 nm with a 96-well microplate reader (Nihon Molecular Devices, Spectramax 190).
The compounds of the following Synthetic Examples were tested according to the method of Assay Example 1 to determine the concentration of each compound that yields a growth rate corresponding to 50% of the growth of human leukemic cell line UT-7/EPO-mpl observed in the presence of 10 ng/ml TPO (EC50).

Test [2] relates to Human bone marrow CD34+ cells. Briefly: Megakaryocyte colony stimulating activity (megakaryocyte colony forming method). The format is cell-based. Conditions: 11 days, colonies of at least 8 stained megakaryocyte cells. How it is done: The action of the compound of Synthetic Example 2 of the present invention on the proliferation, differentiation and maturation of megakaryocyte cells was measured by the megakaryocyte colony forming method using human bone marrow cells. Human bone marrow CD34^+ cells (Cambrex Bio Science Walkersville) were incubated on 2-well chamber slide for 11 days in a CO2 incubator (5% CO2, 37° C.) using MegaCult™-C (StemCell Technologies) containing 0.1% (v/v) of the compound of Synthetic Example 2 dissolved in DMSO. After dehydration and fixation, the cells were stained with an anti-glycoprotein IIb/IIIa antibody in accordance with the instruction by the manufacturer. The colonies consisting of at least 8 stained megakaryocyte cells in each well was counted under a microscope. The megakaryocyte colony counts of duplicate or more assays were averaged.

In test [3] the test system is UT7/EPO cells. Nature of the test: Proliferation of mother cell line UT7/EPO expressing no TPO receptor (WST-8). The format is cell-based, human. As to conditions: FIG. 2. How it is done: as §1
as §2, with “A 10 μl aliquot of 5 mM WST-8 reagent solution was added to each well of the tissue culture plate, and the plate was incubated at 37° C. for 4 h.” left out

Broadly, the EC50 is the concentration giving half of the maximal effect. As to `C/C(=N\NC(=S)Nc1cc(C(=O)O)cc([N+](=O)[O-])c1)c1nn(C)c(-c2ccc(Cl)c(Cl)c2)c1O` [compound 164], the concentration giving a half-maximal response (EC50) in test [1] was 5.73 nM.
Regarding `C/C(=N\NC(=O)c1ccc(C(=O)NCCCN(C)C)s1)c1csc(-c2ccc(Cl)c(Cl)c2)c1O` [compound 226], the EC50 in test [1] is 4.08 nM.
The same measure, in the same setting: with `C/C(=N\NC(=O)c1ccc(N)c(N)c1)c1csc(-c2ccc(Cl)c(Cl)c2)c1O` [compound 176] the figure was 36.8 nM.
For `C/C(=N\NC(=O)c1ccc(C(N)=O)s1)c1csc(-c2ccc(Cl)c(Cl)c2)c1O` [compound 179], in test [1], the EC50 was 6.6 nM.
With `CC(=NNC(=S)Nc1ccc(C(=O)O)cc1)c1nn(C)c(-c2ccc(Cl)c(Cl)c2)c1O` [Synthetic Example 2, 4-{[(2-{1-[5-(3,4-dichlorophenyl)-4-hydroxy-1-methyl-1H-pyrazol-3-yl]ethylidene}hydrazino)carbonothioyl]amino}benzoic acid], the “Megakaryocyte colony Count” value in test [2] (Concentration 0.3 μg/ml) is on record as 25; in test [2] (Concentration 1 μg/ml) it was 48.
Turning to `C/C(=N\NC(=O)c1ccc(C(=O)NC2CCCC2)s1)c1csc(-c2ccc(Cl)c(Cl)c2)c1O` [compound 178], in test [1], the half-maximal effective concentration (EC50) was 6.51 nM.
Same read-out and setting: the same measure for `C/C(=N\NC(=S)Nc1ccc2[nH]c(=O)[nH]c2c1)c1csc(-c2ccc(Cl)c(Cl)c2)c1O` [compound 154]: 5.69 nM.
The same measure, in the same setting: the same measure for `C/C(=N\NC(=S)Nc1ccccc1CC(N)=O)c1nn(C)c(-c2ccc(C(F)(F)F)cc2)c1O` [compound 161]: 7.95 nM.
Same read-out and setting: the same measure for `C/C(=N\NC(=O)c1ccc(C(=O)O)c([N+](=O)[O-])c1)c1csc(-c2ccc(C)c(C)c2)c1O` [compound 212]: 0.529 nM.
In the case of `C/C(=N\NC(=O)c1ccc2cc(C(=O)O)ccc2c1)c1csc(-c2ccc(Cl)c(Cl)c2)c1O` [compound 169], the EC50 in test [1] is 7.41 nM.
The same measure, in the same setting: the same measure for `C/C(=N\NC(=S)Nc1cccc(C(=O)O)c1)c1csc(-c2ccc(C)c(C)c2)c1O` [compound 136]: 7.05 nM; for `CC(=O)Nc1cccc(NC(=S)N/N=C(\C)c2nn(C)c(-c3ccc(C(F)(F)F)cc3)c2O)c1` [compound 157]: 6.32 nM.
Same read-out and setting: the same measure for `C/C(=N\NC(=S)Nc1ccc2cn[nH]c2c1)c1nn(C)c(-c2ccc(Cl)c(Cl)c2)c1O` [compound 155]: 11.2 nM.
On the same count and under the same terms, the same measure for `C/C(=N\NC(=O)c1ccc(C(=O)O)cc1N)c1nn(C)c(-c2ccc(C(F)(F)F)cc2)c1O` [compound 228]: 1.56 nM.
As to `CC(=NNC(=O)c1ccc(C(=O)O)cc1)c1nn(C)c(-c2ccc(C(C)(C)C)cc2)c1O` [Synthetic Example 3, 4-[(2-{1-[5-(4-tert-butylphenyl)-4-hydroxy-1-methyl-1H-pyrazol-3-yl]ethylidene}hydrazino)carbonyl]benzoic acid], the “proliferation of TPO-responsive UT7/EPO-mpl cells” value in test [1] (FIG. 1, concentration-dependent, 4 days incubation, WST-8 absorbance at 450 nm) is given as “stimulated”. Besides, in test [3], the “effect on proliferation of UT7/EPO, the mother cell line” value is “no effect”.
Consider `C/C(=N\NC(=O)c1sc(N)nc1C(F)(F)F)c1csc(-c2ccc(Cl)c(Cl)c2)c1O` [compound 181], for which the concentration for a half-maximal effect (EC50) in test [1] is 5.65 nM.

The values above are taken from patent publication US7576115B2, “Heterocyclic compounds and thrombopoietin receptor activators” (Nissan Chemical Industries, Ltd., priority 2003, dated 2009).
